Reference: ChEMBL document CHEMBL5214926, “Recent contribution of medicinally active 2-aminothiophenes: A privileged scaffold for drug discovery” (Eur J Med Chem, 2022)
Values after ≈ are worked out from the molar mass of the structure shown. Values joined by “and” are separate entries in the source; they are usually repeats but may differ in a detail not shown here. Identical values can stand only once. Values belong to the compound of their own block, whether it stands above or below them.

Assays:
TGF-beta receptor type-1 = biological target: T1, TGF-beta receptor type-1 (Homo sapiens, UniProt P36897); experiment: Inhibition of human TGF-beta-R1 using TMB substrate incubated for 2.5 hrs by microplate reader analysis
T1 sequence (P36897 whole entry): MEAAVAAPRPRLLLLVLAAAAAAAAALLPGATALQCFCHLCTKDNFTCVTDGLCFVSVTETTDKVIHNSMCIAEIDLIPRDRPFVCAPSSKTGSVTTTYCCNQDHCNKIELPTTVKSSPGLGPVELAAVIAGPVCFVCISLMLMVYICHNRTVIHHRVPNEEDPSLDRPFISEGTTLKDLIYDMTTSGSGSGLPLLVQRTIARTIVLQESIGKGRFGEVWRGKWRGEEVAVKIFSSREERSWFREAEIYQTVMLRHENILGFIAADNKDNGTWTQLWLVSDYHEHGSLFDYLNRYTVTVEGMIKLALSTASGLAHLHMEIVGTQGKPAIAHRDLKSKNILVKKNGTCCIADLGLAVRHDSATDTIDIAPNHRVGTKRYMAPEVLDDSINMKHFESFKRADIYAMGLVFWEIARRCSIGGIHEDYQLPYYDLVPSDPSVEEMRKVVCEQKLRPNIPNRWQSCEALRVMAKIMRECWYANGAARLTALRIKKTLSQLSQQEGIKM

[1] = Cytotoxicity against human WI-38 cells assessed as cell growth inhibition incubated for 2 days by MTT assay; format: toxicity, cell-based
PC-3 = experiment: Cytotoxicity against human PC-3 cells assessed as cell growth inhibition incubated for 2 days by MTT assay; format: functional, cell-based; details: PC-3, 48 h
HepG2 = experiment: Cytotoxicity against human HepG2 cells assessed as cell growth inhibition incubated for 2 days by MTT assay; format: functional, cell-based; details: HepG2, 48 h
MCF7 = experiment: Cytotoxicity against human MCF7 cells assessed as cell growth inhibition incubated for 2 days by MTT assay; format: functional, cell-based; details: MCF7, 48 h
Epidermophyton floccosum [2] = experiment: Antifungal activity against Epidermophyton floccosum 6999 assessed as fungal growth inhibition by spectrophotometry; format: functional
Trichophyton tonsurans [3] = experiment: Antifungal activity against Trichophyton tonsurans 700 assessed as fungal growth inhibition by spectrophotometry; format: functional
Trichophyton tonsurans [4] = experiment: Antifungal activity against Trichophyton tonsurans 2822 assessed as fungal growth inhibition by spectrophotometry; format: functional
Trichophyton rubrum = experiment: Antifungal activity against Trichophyton rubrum 6753 assessed as fungal growth inhibition by spectrophotometry; format: functional
[5] = tested on: Trichophyton mentagrophytes; experiment: Antifungal activity against Trichophyton mentagrophytes 5432 assessed as fungal growth inhibition by spectrophotometry; format: functional
Staphylococcus aureus = experiment: Inhibition of EtBr efflux in Staphylococcus aureus SA-1 assessed as reduction in fluorescence intensity at 50 uM measured after 30 mins by spectrophotometry relative to control; format: functional; design: scale not given: the % may be the effect or the level left
[6] = Inhibition of CaCC current potentiation in rat cerebellar Purkinje neurons by electrophysiological method
[7] = Inhibition of CaCC (unknown origin) current potentiation; design: species or system Homo sapiens
Epidermophyton floccosum [8] = experiment: Antifungal activity against Epidermophyton floccosum 6754 assessed as fungal growth inhibition by spectrophotometry; format: functional
JAR = experiment: Cytotoxicity against human JAR cells assessed as cell growth inhibition at 10 uM relative to control; format: functional
Leishmania amazonensis = experiment: Anti-promastigote activity against Leishmania amazonensis (IFLA/BR/67/PH8) assessed as promastigote growth inhibition incubated for 72 hrs by microscopic analysis; format: functional, organism-based; details: Leishmania amazonensis, IFLA/BR/67/PH8, 72 h
DNA = experiment: Binding affinity to parasitic DNA assessed as intrinsic binding constant by UV-visible absorption spectrophotometry; format: nucleic-acid assay
K562 = experiment: Cytotoxicity against human K562 cells assessed as cell growth inhibition; format: functional, cell-based
Candida parapsilosis = experiment: Antifungal activity against Candida parapsilosis ATCC 22019 assessed as fungal growth inhibition by spectrophotometry; format: functional; details: Lodderomyces parapsilosis
Staphylococcus coagulans = experiment: Antimicrobial activity against Staphylococcus coagulans assessed as microbial growth inhibition incubated for 24 hrs by disc diffusion assay; format: functional
Heyndrickxia coagulans = experiment: Antibacterial activity against Bacillus coagulans assessed as bacterial growth inhibition; format: functional
Enterococcus faecalis = experiment: Antibacterial activity against Enterococcus faecalis assessed as bacterial growth inhibition; format: functional

IC50 [6]: 1.6 µM | IC50 [7]: 1.6 µM
SMILES: COC(=O)c1c(NC(=O)Cn2cc(CNC34CC5CC(CC(C5)C3)C4)nn2)sc2c1CCCC2

MIC (Epidermophyton floccosum [2]): 16 µg/mL (≈ 75.4 µM) | MIC (Epidermophyton floccosum [8]): 512 µg/mL (≈ 2410 µM) | MIC (Trichophyton tonsurans [3]): 32 µg/mL (≈ 151 µM) | MIC (Trichophyton tonsurans [4]): 32 µg/mL (≈ 151 µM) | MIC [5]: 256 µg/mL (≈ 1210 µM)
SMILES: N#Cc1ccsc1/N=C/c1ccccc1

IC50 (TGF-beta receptor type-1): 0.087 µM
SMILES: N#Cc1c(NC(=O)/C=C/c2ccc(O)cc2)sc2c1CCC2
IC50 at 2 days [1]: 236 µM | IC50 (PC-3): 3.4 µM | IC50 (HepG2): 3.55 µM | IC50 (MCF7): 4.92 µM

MIC (Candida parapsilosis): 1020 µg/mL (≈ 3980 µM) | MIC (Epidermophyton floccosum [2]): 1020 µg/mL (≈ 3980 µM) | MIC (Epidermophyton floccosum [8]): 512 µg/mL (≈ 1990 µM) | MIC (Trichophyton tonsurans [3]): 512 µg/mL (≈ 1990 µM) | MIC (Trichophyton rubrum): 64 µg/mL (≈ 249 µM)
SMILES: N#Cc1ccsc1/N=C/c1ccc([N+](=O)[O-])cc1

MIC (Trichophyton tonsurans [3]): 64 µg/mL (≈ 228 µM) | MIC (Trichophyton tonsurans [4]): 256 µg/mL (≈ 910 µM) | MIC (Trichophyton rubrum): 32 µg/mL (≈ 114 µM)
SMILES: N#Cc1ccsc1/N=C/c1c(Cl)cccc1Cl

More lines, now with the values behind:

SMILES: COc1ccc(OC)c(/C=C/C(=O)Nc2sc3c(c2C#N)CCC3)c1
IC50 (TGF-beta receptor type-1): 0.09 µM and 0.087 µM | IC50 at 2 days [1]: 185 µM | IC50 (PC-3): 1.35 µM | IC50 (HepG2): 2.7 µM | IC50 (MCF7): 3.2 µM

SMILES: N#Cc1ccsc1/N=C/c1c[nH]c2cccc([N+](=O)[O-])c12
MIC (Epidermophyton floccosum [2]): 1020 µg/mL (≈ 3460 µM) | MIC (Trichophyton tonsurans [3]): 128 µg/mL (≈ 432 µM) | MIC (Trichophyton tonsurans [4]): 512 µg/mL (≈ 1730 µM) | MIC (Trichophyton rubrum): 64 µg/mL (≈ 216 µM) | MIC [5]: 512 µg/mL (≈ 1730 µM)

SMILES: CCOC(=O)c1c(NC(=O)C(F)(F)F)sc2c1CCN(C(=O)CCCCCBr)C2
Activity (Staphylococcus aureus): 125%

SMILES: CCOC(=O)C1=C(Nc2ccccc2)S/C(=C\c2ccc(F)c(C#N)c2)C1=O
inhibition at 10 µM (JAR): 9.9%

SMILES: COc1ccc2nc3cc(Cl)ccc3c(Nc3sc4c(c3C#N)CCC4)c2c1
EC50 (Leishmania amazonensis): 9.6 µM | Kb (DNA): 1 10^4/M

SMILES: CCOC(=O)C1=C(Nc2cccc([N+](=O)[O-])c2)S/C(=C\c2ccc[nH]2)C1=O
IC50 (K562): 87.2 µM

SMILES: CCCCCCCC(=O)N1CCc2c(sc(NC(=O)C(F)(F)F)c2C(=O)OCC)C1
Activity (Staphylococcus aureus): 85%

SMILES: N#Cc1c(NC(=O)c2cc(O)c(O)c(O)c2)sc2c1CCCC2
MIC (Staphylococcus coagulans): 0.45 µM (≈ 0.149 µg/mL) | MIC (Heyndrickxia coagulans): 0.15 µg/mL (≈ 0.454 µM) | MIC (Enterococcus faecalis): 0.17 µg/mL (≈ 0.515 µM)
